Tests used:
Assay type in all cases: biochemical
PI3K γ = target: T1, PI3K γ (Homo sapiens, UniProt P48736); experiment: In vitro IC50, PI3K γ
T1 construct: purchased Sigma
Excerpt: (§1) An exemplary system is PI 3-Kinase (human) HTRF™ Assay from Upstate.

PI3K α = target: T2, PI3K α (Homo sapiens, UniProt P42336); experiment: In vitro IC50, PI3K α
T2 construct: purchased Upstate
Excerpt: as §1

PI3K β = PI3K β (Homo sapiens, UniProt P42338); experiment: In vitro IC50, PI3K β
Excerpt: as §1

PI3K δ = PI3K δ (Homo sapiens, UniProt O00329); experiment: In vitro IC50, PI3K δ; design: purchased Upstate
Chain of PI3K δ (O00329 whole entry): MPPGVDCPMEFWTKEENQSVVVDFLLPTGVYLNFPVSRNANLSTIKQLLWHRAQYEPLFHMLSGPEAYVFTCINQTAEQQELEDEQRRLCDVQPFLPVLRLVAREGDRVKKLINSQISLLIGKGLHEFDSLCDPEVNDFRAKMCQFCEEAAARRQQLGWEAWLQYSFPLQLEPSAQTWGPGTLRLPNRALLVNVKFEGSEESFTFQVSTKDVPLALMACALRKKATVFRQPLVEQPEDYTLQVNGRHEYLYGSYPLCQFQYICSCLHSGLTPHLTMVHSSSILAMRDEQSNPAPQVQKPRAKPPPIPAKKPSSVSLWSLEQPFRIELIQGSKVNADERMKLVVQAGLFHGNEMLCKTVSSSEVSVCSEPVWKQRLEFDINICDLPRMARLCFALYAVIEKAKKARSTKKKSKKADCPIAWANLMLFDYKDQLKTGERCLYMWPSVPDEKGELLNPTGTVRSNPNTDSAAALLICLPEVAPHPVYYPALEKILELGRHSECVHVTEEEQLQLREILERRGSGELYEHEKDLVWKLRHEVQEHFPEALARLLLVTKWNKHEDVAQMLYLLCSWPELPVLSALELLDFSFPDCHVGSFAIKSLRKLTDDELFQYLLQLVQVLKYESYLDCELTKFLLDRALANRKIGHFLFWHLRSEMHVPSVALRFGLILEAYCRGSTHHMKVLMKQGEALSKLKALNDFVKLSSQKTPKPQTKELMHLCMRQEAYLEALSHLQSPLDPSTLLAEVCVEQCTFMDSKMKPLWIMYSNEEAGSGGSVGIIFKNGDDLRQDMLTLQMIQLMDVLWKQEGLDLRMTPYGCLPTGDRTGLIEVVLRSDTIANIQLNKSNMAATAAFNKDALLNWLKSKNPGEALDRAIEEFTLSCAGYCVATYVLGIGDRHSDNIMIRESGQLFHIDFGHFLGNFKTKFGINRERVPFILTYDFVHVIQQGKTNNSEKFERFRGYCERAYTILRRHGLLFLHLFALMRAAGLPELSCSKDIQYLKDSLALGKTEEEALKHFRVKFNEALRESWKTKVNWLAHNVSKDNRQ
Chain of PI3K δ (P27986 whole entry partner): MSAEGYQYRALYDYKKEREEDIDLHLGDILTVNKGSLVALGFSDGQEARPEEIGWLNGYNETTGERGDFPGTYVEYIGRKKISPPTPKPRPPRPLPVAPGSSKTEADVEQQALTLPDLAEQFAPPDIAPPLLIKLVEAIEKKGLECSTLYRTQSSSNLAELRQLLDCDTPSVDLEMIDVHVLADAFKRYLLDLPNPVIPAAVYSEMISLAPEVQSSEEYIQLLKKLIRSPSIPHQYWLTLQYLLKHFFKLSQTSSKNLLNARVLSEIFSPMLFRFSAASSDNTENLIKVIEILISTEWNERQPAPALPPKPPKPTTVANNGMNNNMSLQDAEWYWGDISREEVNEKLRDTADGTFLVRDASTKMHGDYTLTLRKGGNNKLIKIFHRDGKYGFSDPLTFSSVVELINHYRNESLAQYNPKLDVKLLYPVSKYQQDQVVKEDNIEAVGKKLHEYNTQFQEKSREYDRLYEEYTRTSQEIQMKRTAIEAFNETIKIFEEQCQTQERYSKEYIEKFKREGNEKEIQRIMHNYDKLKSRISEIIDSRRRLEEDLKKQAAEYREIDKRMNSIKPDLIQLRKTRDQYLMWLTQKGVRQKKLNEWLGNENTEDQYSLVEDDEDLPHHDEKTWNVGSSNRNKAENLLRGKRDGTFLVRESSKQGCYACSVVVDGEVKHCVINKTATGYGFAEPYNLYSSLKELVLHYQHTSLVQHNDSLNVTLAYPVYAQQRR
Excerpt: as §1

Chain of PI3K β (P42338 whole entry): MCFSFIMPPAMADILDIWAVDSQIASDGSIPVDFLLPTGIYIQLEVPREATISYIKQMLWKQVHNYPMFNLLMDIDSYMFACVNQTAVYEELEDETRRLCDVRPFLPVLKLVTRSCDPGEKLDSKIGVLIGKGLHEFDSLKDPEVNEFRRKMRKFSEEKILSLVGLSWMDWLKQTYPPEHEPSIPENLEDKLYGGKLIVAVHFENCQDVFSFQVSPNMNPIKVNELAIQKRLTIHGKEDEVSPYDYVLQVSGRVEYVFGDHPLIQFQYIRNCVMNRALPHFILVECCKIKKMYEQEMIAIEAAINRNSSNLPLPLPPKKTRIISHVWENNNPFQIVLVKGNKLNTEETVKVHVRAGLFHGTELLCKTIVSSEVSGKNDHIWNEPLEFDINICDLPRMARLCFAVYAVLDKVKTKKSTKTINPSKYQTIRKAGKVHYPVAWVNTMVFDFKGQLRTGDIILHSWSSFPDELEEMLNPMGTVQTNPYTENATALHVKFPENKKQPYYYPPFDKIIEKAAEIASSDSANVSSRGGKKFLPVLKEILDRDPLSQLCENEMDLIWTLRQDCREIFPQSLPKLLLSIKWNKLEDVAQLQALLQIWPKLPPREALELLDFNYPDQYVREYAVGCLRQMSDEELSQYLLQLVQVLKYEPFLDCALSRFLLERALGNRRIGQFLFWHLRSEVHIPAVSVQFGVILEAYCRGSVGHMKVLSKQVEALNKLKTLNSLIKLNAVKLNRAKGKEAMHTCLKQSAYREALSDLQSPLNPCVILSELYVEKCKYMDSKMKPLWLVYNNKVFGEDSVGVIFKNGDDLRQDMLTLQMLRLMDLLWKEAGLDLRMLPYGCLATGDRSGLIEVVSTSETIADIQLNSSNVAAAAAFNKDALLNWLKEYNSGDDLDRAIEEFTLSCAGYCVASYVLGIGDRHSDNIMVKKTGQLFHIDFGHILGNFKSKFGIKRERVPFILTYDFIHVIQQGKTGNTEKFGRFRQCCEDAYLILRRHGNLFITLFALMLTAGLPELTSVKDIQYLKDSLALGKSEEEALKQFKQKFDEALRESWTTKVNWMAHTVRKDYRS
T2 sequence (P42336 whole entry): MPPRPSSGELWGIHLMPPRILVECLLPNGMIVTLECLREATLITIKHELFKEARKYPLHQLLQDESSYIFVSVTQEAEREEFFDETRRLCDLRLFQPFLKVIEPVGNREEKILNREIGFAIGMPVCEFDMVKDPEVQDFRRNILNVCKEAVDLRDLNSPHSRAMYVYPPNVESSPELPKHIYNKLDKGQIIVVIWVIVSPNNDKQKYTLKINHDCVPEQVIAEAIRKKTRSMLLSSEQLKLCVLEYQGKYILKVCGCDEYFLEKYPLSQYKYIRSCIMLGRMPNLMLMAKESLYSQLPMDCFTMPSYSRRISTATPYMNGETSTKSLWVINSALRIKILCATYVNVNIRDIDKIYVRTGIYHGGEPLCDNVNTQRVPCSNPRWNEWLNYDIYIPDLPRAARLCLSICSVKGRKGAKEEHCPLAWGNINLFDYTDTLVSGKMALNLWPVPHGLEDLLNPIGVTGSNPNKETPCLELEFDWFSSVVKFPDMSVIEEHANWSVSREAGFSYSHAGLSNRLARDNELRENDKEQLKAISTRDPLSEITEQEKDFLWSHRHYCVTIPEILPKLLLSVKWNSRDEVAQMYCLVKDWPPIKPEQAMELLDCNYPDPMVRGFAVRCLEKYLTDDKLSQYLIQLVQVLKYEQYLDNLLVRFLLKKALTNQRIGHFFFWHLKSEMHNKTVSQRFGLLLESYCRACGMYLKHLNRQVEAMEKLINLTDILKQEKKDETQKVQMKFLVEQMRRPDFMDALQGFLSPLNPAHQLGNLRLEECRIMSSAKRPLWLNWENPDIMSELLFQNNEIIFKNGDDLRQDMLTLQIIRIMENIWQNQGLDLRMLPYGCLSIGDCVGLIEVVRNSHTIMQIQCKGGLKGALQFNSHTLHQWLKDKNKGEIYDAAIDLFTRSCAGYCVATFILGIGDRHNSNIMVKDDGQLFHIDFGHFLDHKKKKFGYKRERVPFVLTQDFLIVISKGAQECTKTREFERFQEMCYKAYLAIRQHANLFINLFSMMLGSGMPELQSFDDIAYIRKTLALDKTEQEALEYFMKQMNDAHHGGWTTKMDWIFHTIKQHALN
T2 sequence (P27986 whole entry partner): as the sequence (P27986 whole entry partner) above
T1 sequence (P48736 whole entry): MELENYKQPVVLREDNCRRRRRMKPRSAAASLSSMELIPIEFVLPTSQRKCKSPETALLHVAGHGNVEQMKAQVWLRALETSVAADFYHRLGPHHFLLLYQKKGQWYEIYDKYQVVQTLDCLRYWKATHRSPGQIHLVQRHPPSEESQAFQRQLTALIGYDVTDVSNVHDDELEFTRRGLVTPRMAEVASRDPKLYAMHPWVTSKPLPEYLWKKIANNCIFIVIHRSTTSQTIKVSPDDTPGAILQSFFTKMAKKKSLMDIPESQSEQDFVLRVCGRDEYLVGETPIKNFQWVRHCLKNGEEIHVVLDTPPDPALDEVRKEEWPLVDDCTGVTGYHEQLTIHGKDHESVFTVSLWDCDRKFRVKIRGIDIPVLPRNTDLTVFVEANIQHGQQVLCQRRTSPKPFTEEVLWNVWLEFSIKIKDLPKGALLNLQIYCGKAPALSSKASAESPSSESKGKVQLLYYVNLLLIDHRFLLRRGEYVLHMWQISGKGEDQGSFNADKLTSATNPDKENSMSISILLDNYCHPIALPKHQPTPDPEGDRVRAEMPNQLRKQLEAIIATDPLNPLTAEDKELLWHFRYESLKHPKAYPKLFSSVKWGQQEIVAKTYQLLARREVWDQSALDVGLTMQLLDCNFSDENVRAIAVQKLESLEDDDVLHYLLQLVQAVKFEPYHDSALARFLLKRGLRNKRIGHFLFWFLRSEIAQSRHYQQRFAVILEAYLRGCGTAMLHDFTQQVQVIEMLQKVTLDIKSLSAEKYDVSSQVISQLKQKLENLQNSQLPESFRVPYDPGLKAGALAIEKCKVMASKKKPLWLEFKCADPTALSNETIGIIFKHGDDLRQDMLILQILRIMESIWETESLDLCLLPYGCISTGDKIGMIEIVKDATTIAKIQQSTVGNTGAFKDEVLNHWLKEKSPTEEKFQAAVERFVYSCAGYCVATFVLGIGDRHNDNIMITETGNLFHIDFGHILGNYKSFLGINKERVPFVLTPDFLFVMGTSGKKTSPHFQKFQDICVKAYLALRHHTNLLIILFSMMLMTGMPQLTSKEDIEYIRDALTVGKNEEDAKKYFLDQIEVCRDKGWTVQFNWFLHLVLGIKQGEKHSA

Row | Compound | IC50 (PI3K γ) | IC50 (PI3K α) | IC50 (PI3K β) | IC50 (PI3K δ)
1 | Cc1cccc2cc(C(C)Nc3ncnc4[nH]cnc34)n(-c3ccccc3F)c(=O)c12 (stereo not shown) [Compound 167] | < 100 nM | > 10000 nM | < 10000 nM | < 100 nM
2 | Cc1ccccc1-n1c(Cn2nc(C#N)c3c(N)ncnc32)cc2cccc(C)c2c1=O [Compound 170] | < 10000 nM | > 10000 nM | > 10000 nM | < 100 nM
3 | Cc1ccccc1-n1c(Cn2nc(/C=C/C(N)=O)c3c(N)ncnc32)cc2cccc(C)c2c1=O [Compound 174] | < 100 nM | > 10000 nM | < 10000 nM | < 100 nM
4 | CCc1ccccc1-n1c(Cn2nc(-c3cn[nH]c3)c3c(N)ncnc32)cc2cccc(C)c2c1=O [Compound 190] | < 100 nM | < 10000 nM | < 10000 nM | < 100 nM
5 | C=Cc1nn(Cc2cc3cccc(C)c3c(=O)n2-c2ccccc2C)c2ncnc(N)c12 [Compound 180] | < 1000 nM | > 10000 nM | > 10000 nM | < 100 nM
6 | Cc1ccccc1-n1c(Cn2nc(-c3ccc4nc(N)sc4c3)c3c(N)ncnc32)cc2cccc(C)c2c1=O [Compound 145] | < 100 nM | < 1000 nM | < 10000 nM | < 100 nM
7 | Cc1cccc2cc(Cn3nc(-c4ccn[nH]4)c4c(N)ncnc43)n(-c3ccccc3F)c(=O)c12 [Compound 183] | < 10000 nM | > 10000 nM | > 10000 nM | < 1000 nM
8 | Cc1cccc2cc(Cn3nc(-c4cccc(O)c4)c4c(N)ncnc43)n(-c3ccccc3O)c(=O)c12 [Compound 81] | < 100 nM | > 10000 nM | < 10000 nM | < 100 nM
9 | Cc1ccccc1-n1c(Cn2nc(CCC(=O)N3CCOCC3)c3c(N)ncnc32)cc2cccc(C)c2c1=O [Compound 193] | > 10000 nM | > 10000 nM | > 10000 nM | < 10000 nM
10 | Nc1ncnc2c1c(-c1cn[nH]c1)nn2Cc1cc2cccc(F)c2c(=O)n1-c1ccccc1F [Compound 189] | < 10000 nM | > 10000 nM | > 10000 nM | < 1000 nM
11 | Cc1cccc2cc(Cn3nc(-c4cc(O)cc(F)c4)c4c(N)ncnc43)n(C3CCCC3)c(=O)c12 [Compound 63] | < 100 nM | < 10000 nM | < 10000 nM | < 100 nM
12 | Cc1cccnc1-n1c(Cn2nc(-c3ccc(F)c(O)c3)c3c(N)ncnc32)cc2cccc(C)c2c1=O [Compound 68] | < 100 nM | > 10000 nM | > 10000 nM | < 100 nM
13 | Cc1ccccc1-n1c(Cn2nc(-c3cc(O)cc(F)c3)c3c(N)ncnc32)cc2cccc(F)c2c1=O [Compound 55] | < 1000 nM | > 10000 nM | < 10000 nM | < 100 nM
14 | COc1ccc(-c2nn(Cc3cc4cccc(C)c4c(=O)n3-c3ccccc3C)c3ncnc(N)c23)cc1OC [Compound 44] | < 100 nM | > 10000 nM | > 10000 nM | < 1000 nM
15 | Cc1cccc2cc(Cn3nc(/C=C4/CCNC4=O)c4c(N)ncnc43)n(-c3ccccc3F)c(=O)c12 [Compound 172] | > 10000 nM | > 10000 nM | > 10000 nM | < 10000 nM
16 | Cc1cccc2cc(Cn3nc(-c4cc(O)cc(F)c4)c4c(N)ncnc43)n(-c3ccccc3F)c(=O)c12 [Compound 3] | < 100 nM | < 10000 nM | < 10000 nM | < 100 nM
17 | Cc1cccc2cc(Cn3nc(C#C[C@@H](C)O)c4c(N)ncnc43)n(C3CC3)c(=O)c12 [Compound 100] | < 1000 nM | > 10000 nM | < 1000 nM | < 100 nM
18 | Cc1cccc2cc(Cn3nc(-c4cc(O)cc(F)c4)c4c(N)ncnc43)n(C(C)C)c(=O)c12 [Compound 66] | < 1000 nM | < 10000 nM | < 1000 nM | < 100 nM
19 | Cc1cccc2cc(Cn3nc(-c4cn[nH]c4)c4c(N)ncnc43)n(-c3ccccc3Cl)c(=O)c12 [Compound 188] | < 1000 nM | > 10000 nM | > 10000 nM | < 100 nM
20 | Cc1cccc2cc(Cn3nc(I)c4c(N)ncnc43)n(-c3ccccc3OCCN3CCOCC3)c(=O)c12 [Compound 103] | < 1000 nM | > 10000 nM | > 10000 nM | < 100 nM
21 | Cc1ccccc1-n1c(Cn2nc(-c3ccc(Cl)c(O)c3)c3c(N)ncnc32)cc2cccc(C)c2c1=O [Compound 23] | < 100 nM | > 10000 nM | < 10000 nM | < 100 nM
22 | Cc1ccccc1-n1c(Cn2nc(-c3cccc(O)c3)c3c(N)ncnc32)cc2cccc(F)c2c1=O [Compound 59] | < 100 nM | > 10000 nM | > 10000 nM | < 100 nM

Now from value to compound:

Row | IC50 (PI3K γ) | IC50 (PI3K α) | IC50 (PI3K β) | IC50 (PI3K δ) | Compound
23 | < 10000 nM | > 10000 nM | > 10000 nM | < 100 nM | CCC(Nc1ncnc2[nH]cnc12)c1cc2cccc(C)c2c(=O)n1-c1cc(F)cc(F)c1 (stereo not shown) [Compound 224]
24 | > 10000 nM | > 10000 nM | > 10000 nM | < 10000 nM | Cc1cccc2cc(Cn3nc(C(C)C)c4c(N)ncnc43)n(-c3ccccc3)c(=O)c12 [Compound 317]
25 | < 1000 nM | > 10000 nM | < 10000 nM | < 100 nM | Cc1cccc2cc(Cn3nc(C(F)F)c4c(N)ncnc43)n(-c3ccccc3)c(=O)c12 [Compound 308]
26 | < 100 nM | < 1000 nM | < 1000 nM | < 100 nM | Cc1ccccc1-n1c(Cn2nc(-c3ccc4sc(N)nc4c3)c3c(N)ncnc32)cc2cccc(C)c2c1=O [Compound 276]
27 | < 100 nM | < 10000 nM | < 10000 nM | < 100 nM | Cc1cccc2cc([C@H](C)Nc3nc(Cl)nc4[nH]cnc34)n(-c3ccccc3)c(=O)c12 [Compound 244]
28 | < 100 nM | < 10000 nM | < 10000 nM | < 100 nM | CC(=O)Nc1nc2ccc(-c3nn(Cc4cc5cccc(C)c5c(=O)n4-c4ccccc4C)c4ncnc(N)c34)cc2[nH]1 [Compound 296]
29 | < 100 nM | < 10000 nM | < 10000 nM | < 100 nM | Cc1ccccc1-n1c(Cn2nc(-c3ccc4nc(N)oc4c3)c3c(N)ncnc32)cc2cccc(C)c2c1=O [Compound 243]
30 | < 100 nM | < 1000 nM | < 100 nM | < 100 nM | Cc1cccc2cc([C@H](C)Nc3ncnc4[nH]cc(C#N)c34)n(-c3ccccc3)c(=O)c12 [Compound 264]
31 | < 1000 nM | > 10000 nM | < 10000 nM | < 100 nM | C=C(C)c1nn(Cc2cc3cccc(C)c3c(=O)n2-c2ccccc2)c2ncnc(N)c12 [Compound 316]
32 | > 10000 nM | > 10000 nM | > 10000 nM | > 10000 nM | Cc1cccc2cc([C@H](C)NC3CCOCC3)n(-c3ccccc3)c(=O)c12 [Compound 259]
33 | < 100 nM | < 100 nM | < 1000 nM | < 100 nM | Cc1cccc2cc(Cn3nc(-c4ccc5nc(N)sc5c4)c4c(N)ncnc43)n(-c3ccccc3)c(=O)c12 [Compound 252]
34 | < 100 nM | < 10000 nM | < 10000 nM | < 100 nM | Cc1cccc2cc(Cn3nc(-c4ccc5oc(N)nc5c4)c4c(N)ncnc43)n(-c3ccccc3)c(=O)c12 [Compound 205]
35 | < 10000 nM | > 10000 nM | > 10000 nM | < 100 nM | CCC(Nc1ncnc2[nH]cnc12)c1cc2ccccc2c(=O)n1-c1ccccc1 (stereo not shown) [Compound 221]
36 | < 100 nM | < 1000 nM | < 100 nM | < 100 nM | Cc1cccc2cc([C@H](C)Nc3ncnc4[nH]cc(Cl)c34)n(-c3ccccc3)c(=O)c12 [Compound 262]
37 | < 1000 nM | > 10000 nM | > 10000 nM | < 100 nM | Cc1cccc2cc([C@H](C)Nc3ncnc4ccccc34)n(-c3ccccc3)c(=O)c12 [Compound 238]
38 | < 100 nM | < 1000 nM | < 100 nM | < 100 nM | Cc1cccc2cc([C@H](C)Nc3ncnc4[nH]cc(F)c34)n(C3CC3)c(=O)c12 [Compound 278]
39 | < 1000 nM | > 10000 nM | < 10000 nM | < 100 nM | CCC(Nc1ncnc2[nH]cnc12)c1cc2cccc(C)c2c(=O)n1-c1ccccc1C (stereo not shown) [Compound 202]
40 | < 100 nM | < 10000 nM | < 10000 nM | < 100 nM | Cc1cccc2cc(C(C)Nc3ncnc4[nH]cnc34)n(-c3ccccc3)c(=O)c12 (stereo not shown) [Compound 210]
41 | < 100 nM | > 10000 nM | < 10000 nM | < 100 nM | Cc1cccc2cc([C@H](C)Nc3ncnc4[nH]ccc34)n(-c3ccccc3)c(=O)c12 [Compound 247]
42 | < 10000 nM | > 10000 nM | < 10000 nM | < 1000 nM | CC(=O)Nc1nc2cc(-c3nn(Cc4cc5cccc(C)c5c(=O)n4-c4ccccc4C)c4ncnc(N)c34)ccc2s1 [Compound 274]
43 | < 100 nM | < 1000 nM | < 100 nM | < 100 nM | Cc1cccc2cc([C@H](C)Nc3ncnc4[nH]cc(Br)c34)n(C3CC3)c(=O)c12 [Compound 272]
44 | < 100 nM | < 1000 nM | < 100 nM | < 100 nM | Cc1cccc2cc([C@H](C)Nc3ncnc4[nH]cc(C#N)c34)n(C3CC3)c(=O)c12 [Compound 289]
45 | > 10000 nM | > 10000 nM | > 10000 nM | < 10000 nM | Cc1cccc2cc([C@H](C)Nc3ncc(C(F)(F)F)c(N)n3)n(-c3ccccc3)c(=O)c12 [Compound 325]
46 | < 100 nM | > 10000 nM | < 10000 nM | < 100 nM | Cc1cccc2cc(C(C)Nc3ncnc4[nH]cnc34)n(C3CCC3)c(=O)c12 (stereo not shown) [Compound 215]

Reference: patent US20140120083A1, “TREATMENT OF CANCERS USING PI3 KINASE ISOFORM MODULATORS” (INFINITY PHARMACEUTICALS, INC., priority 2012, published 2014)
